According to paper PMC11233931, “Remodeling tumor‐associated macrophage for anti‐cancer effects by rational design of irreversible inhibition of mitogen‐activated protein kinase‐activated protein kinase 2” (MedComm, 2024):

Legend:
Assay in all cases: Eurofins kinase selectivity profile against 380 other human recombinant kinases (Table S2)
Assay type in all cases: biochemical
[1] = target: T1, 380 human recombinant protein kinases (Homo sapiens, UniProt P43405); conditions: Syk(h), read-out: Inhibition rate (%)
T1 construct: purchased Eurofins (Celle Lévescault)
How it was run: (§1)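 Profiling against 380 human recombinant kinases carried out by Eurofins at various compound concentrations.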

[2] = target: T2, 380 human recombinant protein kinases (Homo sapiens, UniProt P49840); conditions: GSK3α(h), read-out: Inhibition rate
T2 construct: purchased Eurofins (Celle Lévescault)
T2 sequence (P49840 whole entry): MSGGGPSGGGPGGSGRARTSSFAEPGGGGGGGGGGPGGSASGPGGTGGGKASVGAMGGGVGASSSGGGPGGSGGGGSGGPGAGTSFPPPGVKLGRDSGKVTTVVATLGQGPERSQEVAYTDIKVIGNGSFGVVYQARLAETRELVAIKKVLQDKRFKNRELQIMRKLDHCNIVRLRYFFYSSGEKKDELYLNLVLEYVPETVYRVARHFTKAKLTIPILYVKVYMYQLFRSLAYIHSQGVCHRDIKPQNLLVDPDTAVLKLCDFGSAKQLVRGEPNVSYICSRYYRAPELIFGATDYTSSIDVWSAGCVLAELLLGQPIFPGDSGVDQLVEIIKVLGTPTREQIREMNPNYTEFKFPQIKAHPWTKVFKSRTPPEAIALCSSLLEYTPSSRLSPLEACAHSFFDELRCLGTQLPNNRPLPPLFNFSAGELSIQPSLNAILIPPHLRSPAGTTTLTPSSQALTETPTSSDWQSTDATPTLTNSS
How it was run: as §1

[3] = target: T3, 380 human recombinant protein kinases (Homo sapiens, UniProt Q00532); conditions: CDKL1(h), read-out: Inhibition rate
T3 construct: purchased Eurofins (Celle Lévescault)
T3 sequence (Q00532 whole entry): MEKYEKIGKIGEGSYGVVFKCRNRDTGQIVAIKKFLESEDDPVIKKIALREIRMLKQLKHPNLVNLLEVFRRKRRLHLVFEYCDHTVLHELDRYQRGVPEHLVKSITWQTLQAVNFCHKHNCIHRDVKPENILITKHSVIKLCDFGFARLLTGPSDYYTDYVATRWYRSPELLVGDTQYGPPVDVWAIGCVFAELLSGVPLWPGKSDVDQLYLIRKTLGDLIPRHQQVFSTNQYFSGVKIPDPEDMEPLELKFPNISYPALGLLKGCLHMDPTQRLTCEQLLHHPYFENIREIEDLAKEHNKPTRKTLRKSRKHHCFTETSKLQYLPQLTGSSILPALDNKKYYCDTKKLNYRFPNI
How it was run: as §1

[4] = target: T4, 380 human recombinant protein kinases (Homo sapiens, UniProt Q8TDX7); conditions: NEK7(h), read-out: Inhibition rate
T4 construct: purchased Eurofins (Celle Lévescault)
T4 sequence (Q8TDX7 whole entry): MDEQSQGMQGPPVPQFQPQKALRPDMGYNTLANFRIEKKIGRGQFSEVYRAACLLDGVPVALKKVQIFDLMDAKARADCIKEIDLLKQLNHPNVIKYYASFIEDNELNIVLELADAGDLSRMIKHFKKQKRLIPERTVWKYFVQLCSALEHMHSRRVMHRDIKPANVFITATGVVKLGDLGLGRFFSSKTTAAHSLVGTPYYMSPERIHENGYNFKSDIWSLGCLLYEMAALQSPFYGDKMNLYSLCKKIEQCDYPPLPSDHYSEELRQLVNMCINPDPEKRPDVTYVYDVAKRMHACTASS
How it was run: as §1

[5] = target: T5, 380 human recombinant protein kinases (Homo sapiens, UniProt Q16832); conditions: DDR2(h), read-out: Inhibition rate
T5 construct: purchased Eurofins (Celle Lévescault)
T5 sequence (Q16832 22-855): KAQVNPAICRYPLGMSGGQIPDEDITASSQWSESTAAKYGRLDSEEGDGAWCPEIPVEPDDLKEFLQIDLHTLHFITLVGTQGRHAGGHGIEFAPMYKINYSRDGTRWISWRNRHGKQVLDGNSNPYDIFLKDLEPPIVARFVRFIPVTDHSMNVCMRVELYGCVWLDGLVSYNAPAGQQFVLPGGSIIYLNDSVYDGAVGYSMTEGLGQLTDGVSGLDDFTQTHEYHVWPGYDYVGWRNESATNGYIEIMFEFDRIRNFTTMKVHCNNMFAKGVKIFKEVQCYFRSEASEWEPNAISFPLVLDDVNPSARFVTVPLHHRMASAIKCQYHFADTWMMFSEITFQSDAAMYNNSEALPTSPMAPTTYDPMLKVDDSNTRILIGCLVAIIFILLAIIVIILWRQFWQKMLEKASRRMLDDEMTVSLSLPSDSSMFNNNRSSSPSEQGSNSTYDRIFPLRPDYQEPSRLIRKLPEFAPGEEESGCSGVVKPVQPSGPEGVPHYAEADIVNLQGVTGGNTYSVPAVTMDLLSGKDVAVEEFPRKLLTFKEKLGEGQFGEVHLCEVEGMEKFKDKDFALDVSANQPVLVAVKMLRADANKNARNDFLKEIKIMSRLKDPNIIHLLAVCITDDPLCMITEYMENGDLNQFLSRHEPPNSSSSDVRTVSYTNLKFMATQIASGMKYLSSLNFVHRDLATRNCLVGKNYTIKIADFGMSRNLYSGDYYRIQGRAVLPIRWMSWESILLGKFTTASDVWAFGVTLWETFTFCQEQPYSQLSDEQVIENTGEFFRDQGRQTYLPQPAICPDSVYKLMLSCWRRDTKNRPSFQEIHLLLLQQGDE
How it was run: as §1

[6] = target: T6, 380 human recombinant protein kinases (Homo sapiens, UniProt P29597); conditions: TYK2(h), read-out: Inhibition rate (%)
T6 construct: purchased Eurofins (Celle Lévescault)
T6 sequence (P29597 whole entry): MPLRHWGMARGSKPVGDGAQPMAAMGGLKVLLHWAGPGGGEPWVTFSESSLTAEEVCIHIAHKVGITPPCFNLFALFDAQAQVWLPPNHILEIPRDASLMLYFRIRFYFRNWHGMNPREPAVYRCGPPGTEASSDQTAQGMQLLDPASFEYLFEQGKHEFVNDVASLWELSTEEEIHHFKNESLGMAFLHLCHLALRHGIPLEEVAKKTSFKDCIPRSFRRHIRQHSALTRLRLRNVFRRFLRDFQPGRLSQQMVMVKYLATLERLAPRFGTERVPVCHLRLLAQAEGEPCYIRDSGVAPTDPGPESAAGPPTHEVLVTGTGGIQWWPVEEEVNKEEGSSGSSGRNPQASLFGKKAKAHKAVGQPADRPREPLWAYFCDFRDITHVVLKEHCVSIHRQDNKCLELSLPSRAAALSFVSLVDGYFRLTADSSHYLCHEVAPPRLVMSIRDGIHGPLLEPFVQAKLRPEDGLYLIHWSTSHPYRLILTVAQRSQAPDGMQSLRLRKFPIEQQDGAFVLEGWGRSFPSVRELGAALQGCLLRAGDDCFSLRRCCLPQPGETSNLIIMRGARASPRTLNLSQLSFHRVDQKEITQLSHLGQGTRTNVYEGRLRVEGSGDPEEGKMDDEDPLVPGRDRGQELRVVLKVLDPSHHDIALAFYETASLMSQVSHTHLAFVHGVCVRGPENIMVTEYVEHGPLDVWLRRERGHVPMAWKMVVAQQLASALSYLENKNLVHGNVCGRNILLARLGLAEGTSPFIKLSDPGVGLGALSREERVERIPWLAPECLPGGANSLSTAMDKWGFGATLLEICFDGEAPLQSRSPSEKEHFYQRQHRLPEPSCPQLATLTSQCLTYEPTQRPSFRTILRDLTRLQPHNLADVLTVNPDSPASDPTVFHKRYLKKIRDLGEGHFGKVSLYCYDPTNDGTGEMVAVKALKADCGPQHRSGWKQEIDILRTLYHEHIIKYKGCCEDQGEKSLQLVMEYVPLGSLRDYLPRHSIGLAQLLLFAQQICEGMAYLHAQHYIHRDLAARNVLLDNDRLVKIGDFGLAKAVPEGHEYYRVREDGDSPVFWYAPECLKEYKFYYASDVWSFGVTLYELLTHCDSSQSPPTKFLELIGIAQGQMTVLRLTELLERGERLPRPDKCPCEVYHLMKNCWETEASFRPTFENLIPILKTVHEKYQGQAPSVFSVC
How it was run: as §1

[7] = target: T7, 380 human recombinant protein kinases (Homo sapiens, UniProt Q86V86); conditions: Pim-3(h), read-out: Inhibition rate
T7 construct: purchased Eurofins (Celle Lévescault)
How it was run: as §1

[8] = target: T8, 380 human recombinant protein kinases (Homo sapiens, UniProt Q13043); conditions: MST1(h), read-out: Inhibition rate
T8 construct: purchased Eurofins (Celle Lévescault)
T8 sequence (Q13043 1-487): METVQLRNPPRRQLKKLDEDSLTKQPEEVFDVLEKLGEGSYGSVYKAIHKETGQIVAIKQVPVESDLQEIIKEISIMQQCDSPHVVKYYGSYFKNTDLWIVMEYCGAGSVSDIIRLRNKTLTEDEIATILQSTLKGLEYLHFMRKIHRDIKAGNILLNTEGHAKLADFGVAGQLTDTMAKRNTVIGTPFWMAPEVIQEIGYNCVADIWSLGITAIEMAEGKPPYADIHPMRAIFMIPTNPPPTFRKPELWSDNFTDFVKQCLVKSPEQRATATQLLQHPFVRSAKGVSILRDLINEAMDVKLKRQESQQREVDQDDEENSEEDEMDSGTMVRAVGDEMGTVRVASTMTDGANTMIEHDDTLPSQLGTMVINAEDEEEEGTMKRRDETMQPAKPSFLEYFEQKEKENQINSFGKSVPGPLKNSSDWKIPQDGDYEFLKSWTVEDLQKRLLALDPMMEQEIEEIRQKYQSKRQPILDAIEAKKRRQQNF
How it was run: as §1

[9] = target: T9, 380 human recombinant protein kinases (Homo sapiens, UniProt Q8IVW4); conditions: CDKL3(h), read-out: Inhibition rate
T9 construct: purchased Eurofins (Celle Lévescault)
T9 sequence (Q8IVW4 whole entry): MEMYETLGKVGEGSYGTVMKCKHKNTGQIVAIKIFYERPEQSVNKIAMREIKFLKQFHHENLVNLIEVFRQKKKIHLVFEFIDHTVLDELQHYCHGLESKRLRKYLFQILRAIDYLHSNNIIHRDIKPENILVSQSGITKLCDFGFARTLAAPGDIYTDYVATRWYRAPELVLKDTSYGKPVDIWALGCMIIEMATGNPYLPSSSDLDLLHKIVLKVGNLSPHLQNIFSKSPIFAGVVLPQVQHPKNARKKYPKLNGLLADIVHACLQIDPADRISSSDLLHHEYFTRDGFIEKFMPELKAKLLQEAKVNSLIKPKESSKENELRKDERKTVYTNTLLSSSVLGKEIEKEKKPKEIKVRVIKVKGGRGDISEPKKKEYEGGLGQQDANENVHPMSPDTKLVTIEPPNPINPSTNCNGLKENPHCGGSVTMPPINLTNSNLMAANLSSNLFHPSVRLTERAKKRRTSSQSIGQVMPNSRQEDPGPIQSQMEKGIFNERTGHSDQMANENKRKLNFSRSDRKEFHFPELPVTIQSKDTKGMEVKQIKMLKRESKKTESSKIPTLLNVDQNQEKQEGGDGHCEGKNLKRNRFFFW
How it was run: as §1

[10] = target: T10, 380 human recombinant protein kinases (Homo sapiens, UniProt Q16288); conditions: TrkC(h), read-out: Inhibition rate (%)
T10 construct: purchased Eurofins (Celle Lévescault)
T10 sequence (Q16288 32-839): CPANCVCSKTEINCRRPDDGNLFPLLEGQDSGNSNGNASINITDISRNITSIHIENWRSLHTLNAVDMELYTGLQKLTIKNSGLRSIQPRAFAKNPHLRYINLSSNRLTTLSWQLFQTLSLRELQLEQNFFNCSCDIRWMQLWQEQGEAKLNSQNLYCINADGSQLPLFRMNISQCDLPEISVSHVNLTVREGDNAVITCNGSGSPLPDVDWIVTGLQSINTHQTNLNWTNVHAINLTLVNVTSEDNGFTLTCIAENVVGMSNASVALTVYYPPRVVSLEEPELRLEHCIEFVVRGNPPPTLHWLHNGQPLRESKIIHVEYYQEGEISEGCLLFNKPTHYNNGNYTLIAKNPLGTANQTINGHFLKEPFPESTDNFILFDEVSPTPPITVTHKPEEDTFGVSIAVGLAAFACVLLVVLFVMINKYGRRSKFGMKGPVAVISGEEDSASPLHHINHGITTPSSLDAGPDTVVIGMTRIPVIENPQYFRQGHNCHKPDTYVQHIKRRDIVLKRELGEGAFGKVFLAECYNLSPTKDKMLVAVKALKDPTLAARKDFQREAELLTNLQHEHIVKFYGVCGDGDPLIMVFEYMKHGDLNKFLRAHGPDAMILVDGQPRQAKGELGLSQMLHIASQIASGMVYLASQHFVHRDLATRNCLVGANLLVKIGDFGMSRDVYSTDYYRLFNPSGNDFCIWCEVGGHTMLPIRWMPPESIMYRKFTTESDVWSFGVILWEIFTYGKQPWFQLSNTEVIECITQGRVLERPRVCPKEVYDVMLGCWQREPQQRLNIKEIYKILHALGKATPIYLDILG
How it was run: as §1

[11] = target: T11, 380 human recombinant protein kinases (Homo sapiens, UniProt Q9UPE1); conditions: MSSK1(h), read-out: Inhibition rate
T11 construct: purchased Eurofins (Celle Lévescault)
T11 sequence (Q9UPE1 whole entry): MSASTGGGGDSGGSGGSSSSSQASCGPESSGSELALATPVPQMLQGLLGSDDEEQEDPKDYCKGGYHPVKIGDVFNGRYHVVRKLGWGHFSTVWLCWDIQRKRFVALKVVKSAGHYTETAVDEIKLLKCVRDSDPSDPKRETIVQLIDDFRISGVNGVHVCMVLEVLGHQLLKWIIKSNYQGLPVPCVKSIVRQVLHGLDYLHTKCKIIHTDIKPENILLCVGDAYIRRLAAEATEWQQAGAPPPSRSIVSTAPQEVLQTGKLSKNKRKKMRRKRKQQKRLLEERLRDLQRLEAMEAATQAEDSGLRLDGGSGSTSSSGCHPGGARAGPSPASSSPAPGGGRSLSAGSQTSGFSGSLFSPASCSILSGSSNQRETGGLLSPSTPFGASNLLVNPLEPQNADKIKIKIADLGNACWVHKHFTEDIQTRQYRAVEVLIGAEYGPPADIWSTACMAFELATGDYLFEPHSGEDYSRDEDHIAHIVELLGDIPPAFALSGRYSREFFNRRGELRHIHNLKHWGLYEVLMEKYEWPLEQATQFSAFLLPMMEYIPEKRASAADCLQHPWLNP
How it was run: as §1

Work on `C=CC(=O)Nc1cc(-c2cc(-c3cc4c([nH]3)CCNC4=O)ccn2)ccc1OC(F)(F)F` [compound 11] yielded an inhibition at 0.01 µM ([1]; 10 nM) of 5%, an inhibition at 0.1 µM ([1]; 100 nM) of -15% and an inhibition at 1 µM ([1]; 1000 nM) of -9%. It also gave an inhibition at 0.01 µM ([2]; 10 nM) of 15%, an inhibition at 0.1 µM ([2]; 100 nM) of -9% and an inhibition at 1 µM ([2]; 1000 nM) of 10%. It also gave an inhibition at 0.01 µM ([3]; 10 nM) of 26%, an inhibition at 0.1 µM ([3]; 100 nM) of 47% and an inhibition at 1 µM ([3]; 1000 nM) of 49%. It also gave an inhibition at 0.01 µM ([4]; 10 nM) of -5%, an inhibition at 0.1 µM ([4]; 100 nM) of -2% and an inhibition at 1 µM ([4]; 1000 nM) of 3%. The inhibition at 0.01 µM ([5]; 10 nM) was -7%, the inhibition at 0.1 µM ([5]; 100 nM) was -10% and the inhibition at 1 µM ([5]; 1000 nM) was -10%. It also gave an inhibition at 0.01 µM ([6]; 10 nM) of 1%, an inhibition at 0.1 µM ([6]; 100 nM) of 10% and an inhibition at 1 µM ([6]; 1000 nM) of 14%. For the same molecule, the inhibition at 0.01 µM ([7]; 10 nM) was -1%, the inhibition at 0.1 µM ([7]; 100 nM) was 16% and the inhibition at 1 µM ([7]; 1000 nM) was 59%. For the same molecule, the inhibition at 0.01 µM ([8]; 10 nM) was -1%, the inhibition at 0.1 µM ([8]; 100 nM) was -9% and the inhibition at 1 µM ([8]; 1000 nM) was 0%. For the same molecule, the inhibition at 0.01 µM ([9]; 10 nM) was 52%, the inhibition at 0.1 µM ([9]; 100 nM) was 88% and the inhibition at 1 µM ([9]; 1000 nM) was 99%. For the same molecule, the inhibition at 0.01 µM ([10]; 10 nM) was -3%, the inhibition at 0.1 µM ([10]; 100 nM) was 4% and the inhibition at 1 µM ([10]; 1000 nM) was -3%. For the same molecule, the inhibition at 0.01 µM ([11]; 10 nM) was -7%, the inhibition at 0.1 µM ([11]; 100 nM) was -4% and the inhibition at 1 µM ([11]; 1000 nM) was 0%.
